From patent US20060068012A1, “Process for preparing poly (vinyl alcohol) drug delivery devices with humidity control” (Bausch & Lomb Incorporated, priority 2004, published 2006)

Assay: thermal stability of the medicament at poly(vinyl alcohol) curing temperature
Type: physicochemical
Conditions: heating during curing of poly(vinyl alcohol)
Experimental: Optionally, the temperature proximate the first drug delivery device and the temperature proximate the second drug delivery device is a minimum of about 120° C. and a maximum of about 210° C. In an embodiment, the temperature proximate the first drug delivery device and the temperature proximate the second drug delivery device is a minimum of about 125° C., about 130° C., about 135° C. or about 140° C. and/or a maximum of about 210° C., about 200° C., about 180° C., about 170° C., about 150° C. or about 140° C. The desired temperature for curing the poly(vinyl alcohol) is dependent upon several factors. If a temperature is selected below about 120° C., the poly(vinyl alcohol) will not cure effectively. If the temperature is above about 210° C., decomposition of the poly(vinyl alcohol) will occur. If the poly(vinyl alcohol) is cured in the presence of the medicament, the stability of the medicament must be considered. For example, flucinolone acetonide begins to decompose above a temperature of about 165° C. Thus, it is desired that a temperature for curing poly(vinyl alcohol) in the presence of flucinolone acetonide be in the range of about 120° C. to about 150° C. and preferably about 135° C.

temperature above which the medicament begins to decompose: > 165 °C
SMILES: CC1(C)O[C@@H]2C[C@H]3[C@@H]4C[C@H](F)C5=CC(=O)C=C[C@]5(C)[C@@]4(F)[C@@H](O)C[C@]3(C)[C@]2(C(=O)CO)O1 [flucinolone acetonide]
